Assay results published in patent US12024507B2, “Compounds as GLP-1R agonists” (Terns Pharmaceuticals, Inc., priority 2021, dated 2024).

What was measured:
human GLP-1R receptor = biological target: T1, human GLP-1R receptor (Homo sapiens, UniProt P43220); assay: GLP-1R cell assay (cAMP TR-FRET, low expression CHO-K1_hGLP-1Rlow_clone10 cell line); type: cell-based; conditions: CHO-K1_hGLP-1Rlow_clone10 cells, relative to control GLP-1 peptide agonist, read-out: GLP1 EC50
T1 construct: expressed in transfected cells
Procedure: Stable cell lines expressing high and low GLP-1R surface expression were generated in CHO-K1 cells transfected (Fugene 6) with a puromycin selectable DNA plasmid encoding human GLP-1R receptor (accession number: NM_002062.5) under control of an EF1A promoter. Transfected cells were seeded into 24-well plates (9,000 cells/well) containing complete medium and incubated in a humidified incubator at 37° C. with 5% carbon dioxide. After overnight incubation, medium was replaced with complete medium supplemented with puromycin (6 μg/mL) and refreshed every 2-3 days to select for stably transfected cells. Individual pools of selected cells were expanded prior to analysis for responsiveness to GLP-1 control peptide using a TR-FRET assay to detect cAMP (LANCE Ultra cAMP Assay, Perkin Elmer). Briefly, cells were collected in Versene solution, plated in 384-well plates (1,000 cells/well) and combined with serially diluted GLP-1R control peptide (10 nL) using an acoustic dispenser (ECHO). Plates were incubated for 30 minutes at 25° C. prior to the addition of EU-cAMP tracer (5 μL) and Ulight-anti-cAMP (5 μL) reagents to each well, followed by 15 minutes incubation at 25° C. TR-FRET signal was detected using an EnVision Multimode Plate Reader (excitation=320 nm; emission=615 and 655 nm). Dose-response curves were used to generate EC50 values as a measure of responsiveness to the GLP-1R control peptide. Selected cell lines were monitored for responsiveness over multiple passages to ensure stability. […] Briefly, GLP-1R expression was analyzed by flow cytometry using a fluorescein-labeled Exendin-4 peptide fluorescent probe (FLEX). Cells were harvested in Versene solution and washed 3-times with PBS+0.5% BSA before incubation with FLEX reagent (10 μM) for 2 hours at room temperature. After incubation, cells were washed 3-times in PBS+0.5% BSA before final resuspension in PBS prior to analysis by flow cytometry to measure FLEX mean fluorescence intensity (MFI) as a measure of GLP-1R expression on the cell surface.
For compound testing in the CHO-K1_hGLP-1Rlow_clone10 cell line, cells were seeded in 384-well plates (1,000 cells/well). Test compounds were serially diluted in DMSO (10-point, 3-fold dilution), added to wells using an ECHO dispenser (10 nL/well) and plates were centrifuged for 1 min and agitated for 2 min at room temperature prior to 30-minute incubation at 25° C. After incubation, Eu-cAMP (5 μL) and Ulight-anti-cAMP (5 μL) reagents were added to each well, followed by centrifugation for 1 minute, agitation for 2 minutes at room temperature, and final incubation of the plates at 25° C. for 15 minutes. Plates were read using an EnVision microplate reader (excitation=320 nm; emission=615 and 655 nm). Dose-response curves were generated from duplicate wells based on percent activation calculated relative to a control GLP-1 peptide agonist that was run in parallel. EC50 values were determined by fitting percent activation as a function of compound concentration using the Hill equation (XLfit).
The compounds tested were compound samples prepared according to the General Procedures described in the Examples section.

[1] = Metabolic stability in human hepatocytes; type: in vitro ADME; conditions: cryopreserved hepatocytes, 1×10^6 cells/mL; for CLint scaled at 1 μM: intrinsic clearance; for half-life at 1 μM: read-out: Human T1/2
Procedure: (§1) Test compounds were incubated in rat and human hepatocytes and stability was assessed from the substrate […] approach. Test compounds were dissolved in dimethyl sulfoxide (DMSO) to create a 10 mM Stock, and then further diluted to create a 1000×Working Stock of 1 mM with DMSO in 96-well plates for test compounds and the positive control (midazolam). Vials containing cryopreserved hepatocytes were removed from the liquid nitrogen tank and immediately immersed in a 37° C. water bath. The vials were shaken gently until the contents had thawed and were then immediately emptied into 48 mL of pre-warmed HT Medium in a 50 mL conical tube. Cells remaining in the vial were resuspended with 1.0 mL of pre-warmed HT Medium and added to the conical tube. The tube was capped and then gently inverted several times to resuspend the hepatocytes. The cell suspension was centrifuged at 50×g at room temperature for 5 minutes and the supernatant discarded. The cell pellet was loosened by gently swirling the centrifuge tube and was re-suspended in 4 mL of warm Dulbecco's Modified Eagle medium (DMEM). Cell density was determined by a cell counter by Nexcelom, and DMEM medium was added to obtain a target density of 1×10^6 cells/mL. The assay was carried out in 96-well microtiter plates. Test Compounds were incubated at 1 μM with 1×10^6 cells/mL hepatocytes in DMEM for 0, 30, 60, 120 and 240 minutes. The incubation was carried out with gentle shaking at 37° C. under a humid atmosphere of 95% air/5% CO2. The volume of the incubation mixture was 37 μL with a final 0.1% DMSO. At each of the time points, the incubation was stopped by adding 150 μL quenching solution (100% acetonitrile, 0.1% formic acid containing bucetin as an internal standard for positive ESI mode). Subsequently, the mixtures were vortexed for 20 min and centrifuged at 4,000 RPM at 10° C. The supernatant (80 μL) was transferred to a clean 96-well plate and analyzed by LC-MS/MS. Midazolam at 1 μM with a final 0.1% DMSO was included as a positive control to verify assay performance. The percent parent remaining, intrinsic and predicted hepatic clearance and t1/2 were calculated. All samples were analyzed by LC-MS/MS using an AB Sciex API 4000 instrument, coupled to a Shimadzu LC-20AD LC Pump system. Separation was achieved using a Waters Atlantis T3 dC18 reverse phase HPLC column (20 mm×2.1 mm) at a flow rate of 0.5 mL/min. The mobile phase consisted of 0.1% formic acid in water (solvent A) and 0.1% formic acid in 100% acetonitrile (solvent B). Elution conditions are detailed below.
(§2) The ion optics of each test compound were optimized for their declustering potential (DP), […] (CE), collision-cell exit potential (CXP) and used in a selected ion monitoring experiment in the positive ion mode. The peak area ratio of each test compound to internal standard was then evaluated for stability. The extent of metabolism was calculated based on the disappearance of the test compound, compared to its initial concentration. The initial rates of clearance of the test compound were calculated using the linear regression plot of semi-log % remaining of the compound versus time.
(§3) The predicted hepatic clearance (CLhep) was calculated using the well stirred method with the following formula with CLint(in vivo) normalized based on liver weight: CLint(in vivo)=CLint×Hepatocellularity×liver weight CLhep predicted=(CLint(in vivo)×Qliver)/(CLint(in vivo)+Qliver) Where Qliver ((ml/min/kg) is Liver Blood Flow
(§4) The relevant physiological parameters of liver weight, blood flow, and hepatocellularity for various species are listed below:
(§5) Results are presented in the Table B3 below for the intrinsic clearance (mL/min/kg) and half-life (t1/2).

[2] = Metabolic stability in rat hepatocytes; type: in vitro ADME; conditions: cryopreserved hepatocytes, 1×10^6 cells/mL; for CLint scaled at 1 μM: intrinsic clearance; for half-life at 1 μM: read-out: Rat T1/2
Procedure: as §1, §2, §3, §4, §5

T1 sequence (P43220 24-463): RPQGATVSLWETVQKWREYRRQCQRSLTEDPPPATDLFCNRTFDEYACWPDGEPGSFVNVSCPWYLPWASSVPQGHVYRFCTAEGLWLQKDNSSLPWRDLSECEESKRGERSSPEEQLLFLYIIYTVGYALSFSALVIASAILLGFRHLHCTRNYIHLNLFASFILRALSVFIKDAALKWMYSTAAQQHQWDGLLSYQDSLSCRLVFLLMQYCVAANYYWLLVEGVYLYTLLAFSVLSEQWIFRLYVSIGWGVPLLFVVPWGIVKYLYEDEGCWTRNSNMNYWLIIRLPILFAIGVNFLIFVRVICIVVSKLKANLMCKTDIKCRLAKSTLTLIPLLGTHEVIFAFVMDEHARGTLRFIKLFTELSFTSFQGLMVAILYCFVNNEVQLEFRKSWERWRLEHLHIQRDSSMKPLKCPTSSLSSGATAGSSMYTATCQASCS

| EC50 (human GLP-1R receptor) [nM] | SMILES | other results |
| --- | --- | --- |
| 53.2 | N#Cc1ccc(COc2cccc(C3CCN(Cc4nc5ccc(-c6nnn[nH]6)cc5n4Cc4cncs4)CC3)n2)c(F)c1 [Compound 11, 4-(((6-(1-((6-(1H-tetrazol-5-yl)-1-(thiazol-5-ylmethyl)-1H-benzo[d]imidazol-2-yl)methyl)piperidin-4-yl)pyridin-2-yl)oxy)methyl)-3-fluorobenzonitrile] | CLint scaled at 1 μM [1]: 19.7 ± 0.4 mL/min/kg; half-life at 1 μM [1]: 2.03 ± 0.041 h; CLint scaled at 1 μM [2]: 68.3 ± 2.52 mL/min/kg; half-life at 1 μM [2]: 0.812 ± 0.03 h |
| 10.6 | O=c1cc(-c2ccc3nc(CN4CCC(c5cccc(OCc6ccc(Cl)cc6F)n5)CC4)n(C[C@@H]4CCO4)c3c2)o[nH]1 [Compound 6, (S)-5-(2-((4-(6-((4-chloro-2-fluorobenzyl)oxy)pyridin-2-yl)piperidin-1-yl)methyl)-1-(oxetan-2-ylmethyl)-1H-benzo[d]imidazol-6-yl)isoxazol-3(2H)-one] | – |
| 5940 | N#Cc1ccc(COc2cccc(N3CCN(Cc4nc5ccc(C(=O)NCC(F)(F)F)cc5n4Cc4ncco4)CC3)n2)c(F)c1 [Compound 3, 2-((4-(6-((4-cyano-2-fluorobenzyl)oxy)pyridin-2-yl)piperazin-1-yl)methyl)-1-(oxazol-2-ylmethyl)-N-(2,2,2-trifluoroethyl)-1H-benzo[d]imidazole-6-carboxamide] | – |
| > 10000 | N#Cc1ccc(COc2cccc(C3CCN(Cc4nc5ccc(C6(O)COC6)cc5n4Cc4cncs4)CC3)n2)c(F)c1 [Compound 15, 3-fluoro-4-(((6-(1-((6-(3-hydroxyoxetan-3-yl)-1-(thiazol-5-ylmethyl)-1H-benzo[d]imidazol-2-yl)methyl)piperidin-4-yl)pyridin-2-yl)oxy)methyl)benzonitrile] | – |
| 461 | N#Cc1ccc(COc2cccc(C3CCN(Cc4nc5ccc(C6=CC(=O)NC6=O)cc5n4Cc4cncs4)CC3)n2)c(F)c1 [Compound 9, 4-(((6-(1-((6-(2,5-dioxo-2,5-dihydro-1H-pyrrol-3-yl)-1-(thiazol-5-ylmethyl)-1H-benzo[d]imidazol-2-yl)methyl)piperidin-4-yl)pyridin-2-yl)oxy)methyl)-3-fluorobenzonitrile] | – |
| 118 | N#Cc1ccc(COc2cccc(C34CCN(Cc5nc6ccc(-c7nnn[nH]7)cc6n5Cc5cncs5)CC3C4)n2)c(F)c1 (centres unmarked) [Compound 10, 4-(((6-(3-((6-(1H-tetrazol-5-yl)-1-(thiazol-5-ylmethyl)-1H-benzo[d]imidazol-2-yl)methyl)-3-azabicyclo[4.1.0]heptan-6-yl)pyridin-2-yl)oxy)methyl)-3-fluorobenzonitrile] | – |
| 704 | N#Cc1ccc(COc2cccc(C3CCN(Cc4nc5ccc(-c6c[nH]c(=O)o6)cc5n4Cc4cncs4)CC3)n2)c(F)c1 [Compound 12, 3-fluoro-4-(((6-(1-((6-(2-oxo-2,3-dihydrooxazol-5-yl)-1-(thiazol-5-ylmethyl)-1H-benzo[d]imidazol-2-yl)methyl)piperidin-4-yl)pyridin-2-yl)oxy)methyl)benzonitrile] | – |
| 231 | CS(=O)(=O)NC(=O)c1ccc2nc(CN3CCN(c4cccc(OCc5ccc(C#N)cc5F)n4)CC3)n(Cc3ncco3)c2c1 [Compound 4, 2-((4-(6-((4-cyano-2-fluorobenzyl)oxy)pyridin-2-yl)piperazin-1-yl)methyl)-N-(dioxo-l5-sulfaneyl)-1-(oxazol-2-ylmethyl)-1H-benzo[d]imidazole-6-carboxamide] | – |
| 2.68 | CC1(c2ccc(C#N)cc2F)Oc2cccc(C3CCN(Cc4nc5ccc(-c6nnn[nH]6)cc5n4C[C@@H]4CCO4)CC3)c2O1 (stereo partly drawn) [Compound 16, 3-fluoro-4-(2-methyl-4-(1-((1-(((S)-oxetan-2-yl)methyl)-6-(1H-tetrazol-5-yl)-1H-benzo [d]imidazol-2-yl)methyl)piperidin-4-yl)benzo[d][1,3]dioxol-2-yl)benzonitrile] | CLint scaled at 1 μM [1]: 6.22 ± 0.55 mL/min/kg; half-life at 1 μM [1]: 6.44 ± 0.571 h; CLint scaled at 1 μM [2]: 6.93 mL/min/kg; half-life at 1 μM [2]: 8 h |
| 148 | O=c1nc(-c2ccc3nc(CN4CCN(c5cccc(OCc6ccc(Br)cc6F)n5)CC4)n(C[C@@H]4CCO4)c3c2)[nH]o1 [Compound 7, (S)-3-(2-((4-(6-((4-bromo-2-fluorobenzyl)oxy)pyridin-2-yl)piperazin-1-yl)methyl)-1-(oxetan-2-ylmethyl)-1H-benzo[d]imidazol-6-yl)-1,2,4-oxadiazol-5(2H)-one] | – |
| 45.4 | N#Cc1ccc(COc2cccc(C3CCN(Cc4nc5ccc(-c6nc(=O)o[nH]6)cc5n4C[C@@H]4CCO4)CC3)n2)c(F)c1 [Compound 5, (S)-3-fluoro-4-(((6-(1-((1-(oxetan-2-ylmethyl)-6-(5-oxo-2,5-dihydro-1,2,4-oxadiazol-3-yl)-1H-benzo[d]imidazol-2-yl)methyl)piperidin-4-yl)pyridin-2-yl)oxy)methyl)benzonitrile] | – |
| 50 | N#Cc1ccc(COc2cccc(C3CCN(Cc4nc5ccc(C(=O)NO)cc5n4C[C@@H]4CCO4)CC3)n2)c(F)c1 [Compound 14, (S)-2-((4-(6-((4-cyano-2-fluorobenzyl)oxy)pyridin-2-yl)piperidin-1-yl)methyl)-N-hydroxy-1-(oxetan-2-ylmethyl)-1H-benzo[d]imidazole-6-carboxamide] | – |
